Results reported in patent US20110229580A1, “COMPOSITIONS AND METHODS FOR NANO-IN-MICRO PARTICLES” (Indian Institute of Technology Bombay, School of …, priority 2010, published 2011).

Test: Confocal laser scanning microscopy of dye retention in CaCO3 nanoparticles
Format: physicochemical
Settings: CLSM
Excerpt: Fluorescent images of FITC-dex (70 kDa) loaded CaCO3 nanoparticles were examined using confocal microscopy. Confocal micrographs of micro/nanoparticles were obtained with a flow view confocal laser scanning microscope (CLSM) equipped with a krypton-argon laser (Olympus FluoView™, Japan). An inverted microscope was also used which was equipped with an oil immersion objective lens (40×). The standard filter settings for fluorescence excitation (488 nm) and emission (520 nm) were used.

O=C1OC2(c3ccc(O)cc3Oc3cc(O)ccc32)c2ccc(N=C=S)cc21 [FITC dye]
retention in CaCO3 nanoparticles: not retained
